# PubChem BioAssay AID330 (DTP/NCI, 2004)
# “And” between values parts separate entries of the source, which are not always exact repeats. Identical values can stand only once. Toxic doses and inconclusive results are not listed.
# System: P388 leukemia ip, CD2F1 mice, survival T/C
# Assay: NCI In Vivo Anticancer Drug Screen. Data for tumor model P388 Leukemia (intraperitoneal) in CD2F1 (CDF1) mice
# Settings: endpoint: median survival time, higher = longer survival
# Procedure, shortened: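 Mice carrying the transplanted tumor received test compound or vehicle. Survival was recorded in each group, and the value is the treated-group measurement divided by that of the vehicle-treated control group.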
# [1] = dose: 6.25 mg/kg/injection, schedule: Q01DX009 (ip), vehicle: distilled water + Tween-80
# [2] = dose: 12.5 mg/kg/injection, schedule: Q01DX009 (ip), vehicle: distilled water + Tween-80
# [3] = dose: 25.0 mg/kg/injection, schedule: Q01DX009 (ip), vehicle: distilled water + Tween-80
# [4] = dose: 50.0 mg/kg/injection, schedule: Q01DX009 (ip), vehicle: distilled water + Tween-80
# [5] = dose: 50.0 mg/kg/injection, schedule: Q01DX009 (ip), vehicle: saline
# [6] = dose: 100.0 mg/kg/injection, schedule: Q01DX009 (ip), vehicle: saline
# [7] = dose: 200.0 mg/kg/injection, schedule: Q01DX009 (ip), vehicle: saline
# [8] = dose: 400.0 mg/kg/injection, schedule: Q01DX009 (ip), vehicle: saline
# [9] = dose: 50.0 mg/kg/injection, schedule: Q01DX005 (ip), vehicle: saline with Tween-80
# [10] = dose: 50.0 mg/kg/injection, schedule: Q01DX009 (ip), vehicle: Klucel (hydroxypropylcellulose) (HPC)
# [11] = dose: 100.0 mg/kg/injection, schedule: Q01DX009 (ip), vehicle: Klucel (hydroxypropylcellulose) (HPC)
# [12] = dose: 200.0 mg/kg/injection, schedule: Q01DX009 (ip), vehicle: Klucel (hydroxypropylcellulose) (HPC)
# [13] = dose: 50.0 mg/kg/injection, schedule: Q01DX009 (ip), vehicle: saline with Tween-80
# [14] = dose: 100.0 mg/kg/injection, schedule: Q01DX009 (ip), vehicle: saline with Tween-80
smiles,measurement,setting,value
CCCC(=O)Oc1ccc[nH]c1=O,T/C,"dose: 3.13 mg/kg/injection, schedule: Q01DX009 (ip), vehicle: distilled water + Tween-80",100 % of control
same,T/C,"dose: 3.13 mg/kg/injection, schedule: Q01DX009 (ip), vehicle: water",92 % of control
same,T/C,[1],107 % of control
same,T/C,"dose: 6.25 mg/kg/injection, schedule: Q01DX009 (ip), vehicle: water",92 % of control
same,T/C,[2],106 % of control
same,T/C,"dose: 12.5 mg/kg/injection, schedule: Q01DX009 (ip), vehicle: water",92 % of control
same,T/C,[3],100 % of control
same,T/C,"dose: 25.0 mg/kg/injection, schedule: Q01DX009 (ip), vehicle: water",99 % of control and 107 % of control
same,T/C,[4],109 % of control
same,T/C,"dose: 50.0 mg/kg/injection, schedule: Q01DX009 (ip), vehicle: water",114 % of control
same,T/C,"dose: 100.0 mg/kg/injection, schedule: Q01DX009 (ip), vehicle: water",114 % of control
same,T/C,"dose: 200.0 mg/kg/injection, schedule: Q01DX009 (ip), vehicle: water",115 % of control
C/C(CC1C(CCO)C1(C)C)=N\NC(N)=O (stereo not given),T/C,"dose: 60.0 mg/kg/injection, schedule: Q01DX005 (ip), vehicle: Klucel (hydroxypropylcellulose) (HPC)",98 % of control
same,T/C,"dose: 120.0 mg/kg/injection, schedule: Q01DX005 (ip), vehicle: Klucel (hydroxypropylcellulose) (HPC)",100 % of control
same,T/C,"dose: 240.0 mg/kg/injection, schedule: Q01DX005 (ip), vehicle: Klucel (hydroxypropylcellulose) (HPC)",106 % of control
O=C(Nc1ccc(C2=NCCN2)cc1)c1cc2ccc(C3=NCCN3)cc2o1,T/C,"dose: 100.0 mg/kg/injection, schedule: Q04DX003 (ip), vehicle: suspension in saline",104 % of control
same,T/C,"dose: 200.0 mg/kg/injection, schedule: Q04DX003 (ip), vehicle: suspension in saline",119 % of control
COCc1cccc2ccnc(COC)c12,T/C,"dose: 100.0 mg/kg/injection, schedule: Q01DX001 (ip), vehicle: saline",100 % of control
same,T/C,"dose: 200.0 mg/kg/injection, schedule: Q01DX001 (ip), vehicle: saline",102 % of control
same,T/C,"dose: 400.0 mg/kg/injection, schedule: Q01DX001 (ip), vehicle: saline",103 % of control
CC1=C(CC/C(C)=C/CCC2=CCC(C3=CC(=O)OC3O)OC2O)C(C)(C)CCC1 (stereo not given),T/C,"dose: 1.0 mg/kg/injection, schedule: Q01DX009 (ip), vehicle: Klucel (hydroxypropylcellulose) (HPC)",116 % of control
same,T/C,"dose: 2.0 mg/kg/injection, schedule: Q01DX009 (ip), vehicle: Klucel (hydroxypropylcellulose) (HPC)",111 % of control
same,T/C,"dose: 4.0 mg/kg/injection, schedule: Q01DX009 (ip), vehicle: Klucel (hydroxypropylcellulose) (HPC)",117 % of control
same,T/C,"dose: 8.0 mg/kg/injection, schedule: Q01DX009 (ip), vehicle: Klucel (hydroxypropylcellulose) (HPC)",100 % of control
same,T/C,"dose: 16.0 mg/kg/injection, schedule: Q01DX009 (ip), vehicle: Klucel (hydroxypropylcellulose) (HPC)",117 % of control
OCCC[N+]12CCCN1CCC2,T/C,[5],98 % of control
same,T/C,[6],104 % of control
CCCC1OC(C)(Cc2ccccc2)OCC1CC (stereo not given),T/C,[6],103 % of control
same,T/C,[7],113 % of control
same,T/C,[8],109 % of control
CC(C)(C)[Si](C)(C)ONC(=O)c1ccccc1,T/C,[1],100 % of control
same,T/C,[2],98 % of control
same,T/C,[3],107 % of control
same,T/C,[4],91 % of control
same,T/C,"dose: 100.0 mg/kg/injection, schedule: Q01DX009 (ip), vehicle: distilled water + Tween-80",100 % of control
same,T/C,"dose: 200.0 mg/kg/injection, schedule: Q01DX009 (ip), vehicle: distilled water + Tween-80",98 % of control
same,T/C,"dose: 400.0 mg/kg/injection, schedule: Q01DX009 (ip), vehicle: distilled water + Tween-80",100 % of control
C/C(=N\NC(=S)N1CCC(c2ccccc2)CC1)c1ncccn1,T/C,"dose: 12.5 mg/kg/injection, schedule: Q01DX005 (ip), vehicle: saline with Tween-80",110 % of control
same,T/C,[9],169 % of control
OCC(O)C1OC(c2ccccc2)OC(CO)C1O (stereo not given),T/C,[9],100 % of control
same,T/C,"dose: 100.0 mg/kg/injection, schedule: Q01DX005 (ip), vehicle: saline with Tween-80",109 % of control
same,T/C,"dose: 200.0 mg/kg/injection, schedule: Q01DX005 (ip), vehicle: saline with Tween-80",102 % of control
Nc1nc(N)c2nc(NCc3ccc(C(=O)NC(CCC(=O)O)C(=O)O)cc3)cnc2n1 (stereo not given),T/C,[5],100 % of control
same,T/C,[6],109 % of control
same,T/C,[7],113 % of control
same,T/C,[8],95 % of control
CCOc1cccc(/C=C2/C(=O)N(Cc3ccco3)SC2=S)c1O,T/C,"dose: 3.12 mg/kg/injection, schedule: Q01DX009 (ip), vehicle: Klucel (hydroxypropylcellulose) (HPC)",93 % of control
same,T/C,"dose: 6.25 mg/kg/injection, schedule: Q01DX009 (ip), vehicle: Klucel (hydroxypropylcellulose) (HPC)",93 % of control
same,T/C,"dose: 12.5 mg/kg/injection, schedule: Q01DX009 (ip), vehicle: Klucel (hydroxypropylcellulose) (HPC)",93 % of control and 94 % of control
same,T/C,"dose: 25.0 mg/kg/injection, schedule: Q01DX009 (ip), vehicle: Klucel (hydroxypropylcellulose) (HPC)",98 % of control
CC1OC2CC(=O)OC2C2=C1C(=O)c1cc(-c3cc(O)c4c(c3)C(=O)C3=C(C4=O)C4OC(=O)CC4OC3C)cc(O)c1C2=O (stereo not given),T/C,"dose: 0.95 mg/kg/injection, schedule: Q01DX005 (ip), vehicle: DMSO",98 % of control
same,T/C,"dose: 1.9 mg/kg/injection, schedule: Q01DX005 (ip), vehicle: DMSO",107 % of control
same,T/C,"dose: 3.8 mg/kg/injection, schedule: Q01DX005 (ip), vehicle: DMSO",99 % of control
Cc1cnc(C2OCCO2)c2cccc(N)c12,T/C,[10],104 % of control
same,T/C,[11],105 % of control
same,T/C,[12],112 % of control
C[n+]1ccccc1C1(O)CCCC1,T/C,[13],94 % of control
same,T/C,[14],100 % of control
same,T/C,"dose: 200.0 mg/kg/injection, schedule: Q01DX009 (ip), vehicle: saline with Tween-80",100 % of control
O=C(/C=C\c1ccccc1)c1ccccc1,T/C,"dose: 100.0 mg/kg/injection, schedule: Q04DX002 (ip), vehicle: saline",112 % of control
same,T/C,"dose: 200.0 mg/kg/injection, schedule: Q04DX002 (ip), vehicle: saline",110 % of control
same,T/C,"dose: 400.0 mg/kg/injection, schedule: Q04DX002 (ip), vehicle: saline",102 % of control
CSc1nc2c(=S)[nH]cnc2s1,T/C,"dose: 100.0 mg/kg/injection, schedule: Q04DX002 (ip), vehicle: saline with Tween-80",95 % of control
same,T/C,"dose: 200.0 mg/kg/injection, schedule: Q04DX002 (ip), vehicle: saline with Tween-80",92 % of control
same,T/C,"dose: 400.0 mg/kg/injection, schedule: Q04DX002 (ip), vehicle: saline with Tween-80",92 % of control
COC(=O)/C=C/COc1ccccc1C(=O)NCc1ccc([N+](=O)[O-])cc1,T/C,"dose: 100.0 mg/kg/injection, schedule: Q04DX003 (ip), vehicle: Klucel (hydroxypropylcellulose) (HPC)",109 % of control
same,T/C,"dose: 200.0 mg/kg/injection, schedule: Q04DX003 (ip), vehicle: Klucel (hydroxypropylcellulose) (HPC)",108 % of control
same,T/C,"dose: 400.0 mg/kg/injection, schedule: Q04DX003 (ip), vehicle: Klucel (hydroxypropylcellulose) (HPC)",109 % of control
C/C(=N/O)[c-]1[c-][c-][c-][c-]1.[Fe].[c-]1[c-][c-][cH-][c-]1,T/C,"dose: 25.0 mg/kg/injection, schedule: Q01DX009 (ip), vehicle: saline with Tween-80",120 % of control
same,T/C,[13],115 % of control
same,T/C,[14],100 % of control
CC1(C)CC(C)(OC(=O)c2ccc([N+](=O)[O-])cc2)[N+]([O-])=N1 (stereo not given),T/C,"dose: 12.5 mg/kg/injection, schedule: Q01DX009 (ip), vehicle: other",96 % of control
same,T/C,"dose: 25.0 mg/kg/injection, schedule: Q01DX009 (ip), vehicle: other",100 % of control
same,T/C,"dose: 50.0 mg/kg/injection, schedule: Q01DX009 (ip), vehicle: other",95 % of control
same,T/C,"dose: 100.0 mg/kg/injection, schedule: Q01DX009 (ip), vehicle: other",94 % of control
same,T/C,"dose: 200.0 mg/kg/injection, schedule: Q01DX009 (ip), vehicle: other",88 % of control
CC(=O)OC1C=CN(C(C)=O)C(SC(C)(C)C)C1(C)O (stereo not given),T/C,[10],101 % of control and 119 % of control
same,T/C,[11],107 % of control and 112 % of control
same,T/C,[12],113 % of control and 120 % of control
same,T/C,"dose: 400.0 mg/kg/injection, schedule: Q01DX009 (ip), vehicle: Klucel (hydroxypropylcellulose) (HPC)",110 % of control
